The record followed here is patent US8952169B2 (Genentech, Inc., priority 2012, dated 2015).

pIC50: −log10 of the molar value.

Assay [1] has as its target T1, hNav1.7 (Homo sapiens (Human), UniProt Q15858). The assay is described as follows: Tritiated aryl sulfonamide binding to membranes from cells expressing hNav1.7 and the β1 subunit (competitive binding). Conditions: read-out: NaV1.7 395 Memb Binding (IC50). The gist of the method:
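Competitive displacement of 100 μM [3H]-labelled tritiated aryl sulfonamide from hNav1.7/β1 membranes, 18 h at room temperature in 100 mM NaCl, 20 mM Tris HCl pH 7.4. Non-specific binding defined with 1 μM unlabelled compound. Filter-bound radioactivity measured by liquid scintillation counting.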

A further assay concerns the target hNav1.5 (Homo sapiens (Human), UniProt Q14524). The assay is described as follows: Patch voltage clamp electrophysiology (PatchXpress), HEK-293 cells, inactivated state block. Conditions: read-out: EP_PX 293 hNav1.5 (IC50), β1 coexpressed, holding −60 mV.
Assay [2] has as its target T1, hNav1.7. Described as above. In kind it is cell-based. Conditions: read-out: EP_PX 293 hNav1.7 (IC50).
[3] abbreviates: membranes with hNav1.7 and β1 subunit, [3H]compound displacement, 18 h, room temperature.
The mark [4] stands for this setting: HEK-293 cells, β1 coexpressed, inactivated state, holding −60 mV.

Chain of hNav1.5 (Q14524 whole entry): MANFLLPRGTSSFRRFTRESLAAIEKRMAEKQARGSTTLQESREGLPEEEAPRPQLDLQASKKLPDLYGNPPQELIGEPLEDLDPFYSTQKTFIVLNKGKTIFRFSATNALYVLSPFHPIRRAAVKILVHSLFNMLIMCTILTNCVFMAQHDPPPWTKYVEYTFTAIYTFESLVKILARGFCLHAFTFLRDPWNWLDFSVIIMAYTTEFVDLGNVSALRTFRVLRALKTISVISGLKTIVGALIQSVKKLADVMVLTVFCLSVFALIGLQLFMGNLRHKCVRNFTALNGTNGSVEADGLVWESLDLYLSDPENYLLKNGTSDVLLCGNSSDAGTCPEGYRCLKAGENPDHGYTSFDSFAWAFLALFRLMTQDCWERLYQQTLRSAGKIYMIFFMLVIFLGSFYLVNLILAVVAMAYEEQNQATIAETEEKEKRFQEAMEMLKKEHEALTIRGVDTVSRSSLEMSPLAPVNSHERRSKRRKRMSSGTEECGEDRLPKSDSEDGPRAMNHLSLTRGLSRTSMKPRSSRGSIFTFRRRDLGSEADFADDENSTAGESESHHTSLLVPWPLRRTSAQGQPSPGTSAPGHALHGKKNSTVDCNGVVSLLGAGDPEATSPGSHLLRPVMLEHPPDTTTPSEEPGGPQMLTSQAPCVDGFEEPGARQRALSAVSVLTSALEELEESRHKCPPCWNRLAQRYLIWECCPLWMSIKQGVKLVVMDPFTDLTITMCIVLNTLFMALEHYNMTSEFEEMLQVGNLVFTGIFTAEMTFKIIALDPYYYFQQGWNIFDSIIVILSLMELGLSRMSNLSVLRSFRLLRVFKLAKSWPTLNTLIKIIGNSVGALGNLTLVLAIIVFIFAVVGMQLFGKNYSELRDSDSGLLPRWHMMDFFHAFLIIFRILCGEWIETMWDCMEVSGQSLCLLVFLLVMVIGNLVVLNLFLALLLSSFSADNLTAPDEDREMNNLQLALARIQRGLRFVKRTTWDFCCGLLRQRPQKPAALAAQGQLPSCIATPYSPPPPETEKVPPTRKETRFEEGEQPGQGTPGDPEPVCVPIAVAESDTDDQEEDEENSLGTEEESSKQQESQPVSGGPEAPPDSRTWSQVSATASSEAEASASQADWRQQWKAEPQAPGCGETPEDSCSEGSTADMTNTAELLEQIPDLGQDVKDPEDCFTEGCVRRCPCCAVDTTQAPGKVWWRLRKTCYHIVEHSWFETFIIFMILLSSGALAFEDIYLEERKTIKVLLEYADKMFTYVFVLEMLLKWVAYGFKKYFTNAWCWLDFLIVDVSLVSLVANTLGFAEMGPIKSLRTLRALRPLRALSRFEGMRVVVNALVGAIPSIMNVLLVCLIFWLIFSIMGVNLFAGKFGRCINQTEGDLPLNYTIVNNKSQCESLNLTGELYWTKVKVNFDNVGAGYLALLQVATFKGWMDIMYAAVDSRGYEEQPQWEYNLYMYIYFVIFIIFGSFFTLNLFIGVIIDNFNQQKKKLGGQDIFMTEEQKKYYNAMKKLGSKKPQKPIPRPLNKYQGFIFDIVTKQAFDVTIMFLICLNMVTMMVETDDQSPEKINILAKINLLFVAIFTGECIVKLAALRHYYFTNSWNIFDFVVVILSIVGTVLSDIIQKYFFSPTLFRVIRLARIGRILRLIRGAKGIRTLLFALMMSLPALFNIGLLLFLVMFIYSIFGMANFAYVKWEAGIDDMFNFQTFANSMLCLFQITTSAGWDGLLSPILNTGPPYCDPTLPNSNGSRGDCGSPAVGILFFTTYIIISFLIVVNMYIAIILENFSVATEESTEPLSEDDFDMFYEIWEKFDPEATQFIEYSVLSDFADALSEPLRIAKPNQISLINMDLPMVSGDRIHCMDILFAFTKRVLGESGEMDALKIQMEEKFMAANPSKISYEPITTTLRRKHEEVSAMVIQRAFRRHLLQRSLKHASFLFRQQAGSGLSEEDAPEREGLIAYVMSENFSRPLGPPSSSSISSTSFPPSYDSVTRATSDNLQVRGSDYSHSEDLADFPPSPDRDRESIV
T1 sequence (Q15858 whole entry, looked up): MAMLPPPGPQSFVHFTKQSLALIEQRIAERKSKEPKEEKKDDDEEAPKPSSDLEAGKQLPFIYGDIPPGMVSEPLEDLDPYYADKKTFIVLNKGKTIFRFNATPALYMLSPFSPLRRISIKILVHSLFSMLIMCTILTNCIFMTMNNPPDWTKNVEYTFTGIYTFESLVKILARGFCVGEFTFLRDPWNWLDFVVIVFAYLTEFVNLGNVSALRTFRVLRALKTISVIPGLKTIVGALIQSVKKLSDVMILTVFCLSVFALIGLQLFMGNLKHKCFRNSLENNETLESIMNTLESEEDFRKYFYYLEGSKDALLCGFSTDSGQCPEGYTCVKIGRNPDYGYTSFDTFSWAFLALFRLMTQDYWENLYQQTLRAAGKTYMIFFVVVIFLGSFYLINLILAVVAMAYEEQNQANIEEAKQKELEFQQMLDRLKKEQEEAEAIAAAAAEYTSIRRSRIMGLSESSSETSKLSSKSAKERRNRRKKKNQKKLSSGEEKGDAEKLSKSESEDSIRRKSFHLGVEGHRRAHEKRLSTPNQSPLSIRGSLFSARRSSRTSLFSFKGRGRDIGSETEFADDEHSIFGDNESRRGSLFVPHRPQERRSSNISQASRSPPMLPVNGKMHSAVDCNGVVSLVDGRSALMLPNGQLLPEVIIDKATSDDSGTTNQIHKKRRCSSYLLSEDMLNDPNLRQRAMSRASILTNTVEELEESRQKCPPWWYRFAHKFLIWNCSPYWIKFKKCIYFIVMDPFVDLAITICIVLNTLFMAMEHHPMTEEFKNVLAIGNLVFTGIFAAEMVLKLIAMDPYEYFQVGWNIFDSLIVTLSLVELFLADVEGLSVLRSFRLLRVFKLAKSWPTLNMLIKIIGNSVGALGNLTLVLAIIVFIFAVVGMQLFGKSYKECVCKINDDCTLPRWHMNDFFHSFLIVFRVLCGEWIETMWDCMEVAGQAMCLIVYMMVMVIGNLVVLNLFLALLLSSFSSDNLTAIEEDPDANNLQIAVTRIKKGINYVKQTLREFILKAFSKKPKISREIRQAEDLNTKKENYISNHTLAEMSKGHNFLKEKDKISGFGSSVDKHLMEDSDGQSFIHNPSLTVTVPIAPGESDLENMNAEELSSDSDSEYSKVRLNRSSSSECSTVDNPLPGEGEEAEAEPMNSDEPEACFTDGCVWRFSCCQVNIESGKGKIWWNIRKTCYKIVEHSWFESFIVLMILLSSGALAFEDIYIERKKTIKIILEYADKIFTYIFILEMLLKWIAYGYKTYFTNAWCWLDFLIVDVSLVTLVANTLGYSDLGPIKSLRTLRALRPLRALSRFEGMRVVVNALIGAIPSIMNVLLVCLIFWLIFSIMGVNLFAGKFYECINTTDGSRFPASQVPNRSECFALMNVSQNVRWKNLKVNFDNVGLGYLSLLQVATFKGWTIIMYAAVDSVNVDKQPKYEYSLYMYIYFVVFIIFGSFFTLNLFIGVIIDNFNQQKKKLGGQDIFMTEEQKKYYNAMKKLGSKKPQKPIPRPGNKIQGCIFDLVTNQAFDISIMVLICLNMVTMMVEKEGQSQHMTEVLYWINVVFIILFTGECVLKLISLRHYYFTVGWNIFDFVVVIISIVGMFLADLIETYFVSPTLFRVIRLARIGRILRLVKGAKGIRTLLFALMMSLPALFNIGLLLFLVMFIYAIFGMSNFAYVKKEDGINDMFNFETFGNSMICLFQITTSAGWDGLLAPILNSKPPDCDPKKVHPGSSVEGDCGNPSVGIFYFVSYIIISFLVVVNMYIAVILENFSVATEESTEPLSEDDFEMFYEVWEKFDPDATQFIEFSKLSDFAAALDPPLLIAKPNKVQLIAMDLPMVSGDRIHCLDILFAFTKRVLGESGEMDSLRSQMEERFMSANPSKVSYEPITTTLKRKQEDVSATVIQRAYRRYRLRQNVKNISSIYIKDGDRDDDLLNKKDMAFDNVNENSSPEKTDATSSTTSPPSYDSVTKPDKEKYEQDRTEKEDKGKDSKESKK
T1 sequence (Q07699 whole entry partner, looked up): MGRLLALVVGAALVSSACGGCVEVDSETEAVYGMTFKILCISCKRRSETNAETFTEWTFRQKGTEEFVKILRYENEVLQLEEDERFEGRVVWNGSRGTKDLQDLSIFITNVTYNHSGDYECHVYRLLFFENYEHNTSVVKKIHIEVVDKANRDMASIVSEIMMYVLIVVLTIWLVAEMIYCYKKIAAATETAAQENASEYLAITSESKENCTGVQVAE

As for `CN(C)S(=O)(=O)NC(=O)c1cc(Cl)c(OC2CC3CC2C2CCCC32)cc1F` (stereo not shown), the pIC50 at hNav1.7 [1] (setting [3]) was 6.27; at hNav1.5, 5.11.
Consider `CS(=O)(=O)NC(=O)c1cc(Cl)c(OCC2CC3C4CCC(C4)C3C2)cc1F` (stereo not shown), for which the negative-log IC50 (pIC50) was 8.44 at hNav1.7 [2] (setting [4]), 8.05 on hNav1.7 [1] (setting [3]) and 6.13 on hNav1.5.
Take `O=C(NS(=O)(=O)C1CC1)c1cc(Cl)c(OCC23CC4CC(CC(C4)C2)C3)cc1F`: the pIC50 at hNav1.5 is 6.37.
With `O=C(NS(=O)(=O)N1CC[C@H](O)C1)c1cc(C2CC2)c(OCC23CC4CC(CC(C4)C2)C3)cc1F`, the values for the negative logarithm of the IC50 (pIC50) on hNav1.7 [1] (setting [3]) and at hNav1.5 were 8.00 and 6.96, respectively.
Taken in the same sequence, the figures for `O=C(NS(=O)(=O)N1CC(F)C1)c1cc(C2CC2)c(OCC23CC4CC(CC(C4)C2)C3)cc1F` were 9.00 and 6.37.
Take `O=C(NS(=O)(=O)N1CC(F)(F)C1)c1cc(C2CC2)c(OCC23CC4CC(CC(C4)C2)C3)cc1F`: the pIC50 at hNav1.7 [1] (setting [3]) is 8.00; on hNav1.5, 6.49.
`CS(=O)(=O)NC(=O)c1cc(C2CC2)c(OCC2CCC(F)(F)CC2)cc1F`: at hNav1.5, the pIC50 is 5.28.
Take `O=C(NS(=O)(=O)NCCCO)c1cc(C2CC2)c(OCC23CC4CC(CC(C4)C2)C3)cc1F`: the pIC50 on hNav1.7 [2] (setting [4]) was 8.04; at hNav1.7 [1] (setting [3]), 7.64; on hNav1.5, 7.66.
With `COC1CN(S(=O)(=O)NC(=O)c2cc(C3CC3)c(OCC34CC5CC(CC(C5)C3)C4)cc2F)C1`, the pIC50 at hNav1.7 [2] (setting [4]) was 7.60; on hNav1.7 [1] (setting [3]), 8.52; at hNav1.5, 6.84.
On to `O=C(NS(=O)(=O)N1CCC1)c1cc(C2CC2)c(OCC2CCCCC2)cc1F`, for which the pIC50 on hNav1.7 [2] is 9.00; at hNav1.7 [1], 8.22; at hNav1.5 it was 7.40.
Regarding `COCCS(=O)(=O)NC(=O)c1cc(C2CC2)c(OCC2CCCCC2)cc1F`, on hNav1.5, the pIC50 was 6.85.
As for `O=C(NS(=O)(=O)N1CCC1)c1cc(C2CC2)c(OCC2C3CC4CC(C3)CC2C4)cc1F` (stereo not shown), the pIC50 at hNav1.7 [2] (setting [4]) is 8.05; at hNav1.7 [1] (setting [3]), 9.00; at hNav1.5, 6.89.
For the compound `CS(=O)(=O)NC(=O)c1cc(C2CC2)c(OCC23CC4(F)CC(F)(CC(F)(C4)C2)C3)cc1F`, the pIC50 on hNav1.7 [2] (setting [4]) is 7.70; at hNav1.7 [1] (setting [3]) it was 7.85; on hNav1.5, 5.46.
For the compound `O=C(NS(=O)(=O)C1CC1)c1cc(C2CC2)c(OCC2CCC(F)(F)CC2)cc1F`, the negative-log IC50 (pIC50) was 8.10 at hNav1.7 [2] (setting [4]), 8.22 on hNav1.7 [1] (setting [3]) and 6.20 at hNav1.5.
On the same counts, the results for `O=C(NS(=O)(=O)C1CC1)c1cc(C2CC2)c(OCC23CC4(F)CC(F)(CC(F)(C4)C2)C3)cc1F` are 7.70, 8.30 and 6.37.
Taken in the same sequence, the figures for `O=C(NS(=O)(=O)N1CCC1)c1cc(C2CC2)c(OCC2(C(F)(F)F)CCCC2)cc1F` were 8.70, 8.40 and 7.05.
On to `O=C(NS(=O)(=O)C1CC1)c1cc(C2CC2)c(OCC23CC4CC(C2)C(F)(F)C(C4)C3)cc1F`, for which the pIC50 at hNav1.7 [2] (setting [4]) is 8.10; at hNav1.7 [1] (setting [3]) it was 8.52; at hNav1.5 it was 6.89.
Taken in the same sequence, the figures for `O=C(NS(=O)(=O)N1CCC1)c1cc(C2CC2)c(OCC23CCCCC2C3)cc1F` (stereo not shown) were 8.70, 8.22 and 6.80.
As for `O=C(NS(=O)(=O)N1CCC1)c1cnc(OCC23CC4CC(CC(C4)C2)C3)c(C2CC2)c1`, the pIC50 was 7.20 on hNav1.7 [2] (setting [4]), 6.54 at hNav1.7 [1] (setting [3]) and 5.12 at hNav1.5.
Turning to `COCCS(=O)(=O)NC(=O)c1cnc(OCC23CC4CC(CC(C4)C2)C3)c(C2CC2)c1`, the negative logarithm of the IC50 (pIC50) at hNav1.7 [2] (setting [4]) was 6.43; at hNav1.7 [1] (setting [3]) it was 6.14; at hNav1.5, 4.82.
As to `O=C(NS(=O)(=O)N1CCC1)c1cc(C2CC2)c(O[C@H]2C3CC4CC2C[C@](Cl)(C4)C3)cc1F`, the negative-log IC50 (pIC50) on hNav1.7 [2] (setting [4]) was 7.52; at hNav1.7 [1] (setting [3]), 8.05; at hNav1.5, 4.67.
On the same counts, the results for `CS(=O)(=O)NC(=O)c1cnc(OCC23CC4CC(CC(C4)C2)C3)c(C2CC2)c1` are 7.75, 7.14 and 5.59.
For the compound `O=C(NS(=O)(=O)N1CC(O)C1)c1cc(C2CC2)c(OCC23CC4CC(CC(C4)C2)C3)cc1F`, the negative-log IC50 (pIC50) at hNav1.7 [2] (setting [4]) was 7.97; on hNav1.7 [1] (setting [3]), 8.15; at hNav1.5 it was 7.22.
For the compound `CS(=O)(=O)NC(=O)c1ccc(OCC23CC4CC(CC(C4)C2)C3)c(Br)c1`, the pIC50 on hNav1.7 [2] (setting [4]) is 8.12; on hNav1.7 [1] (setting [3]), 7.29; on hNav1.5, 5.71.
Turning to `CC1(C)[C@H]2CC[C@H](COc3cc(F)c(C(=O)NS(C)(=O)=O)cc3Cl)[C@@H]1C2`, the negative-log IC50 (pIC50) was 7.92 on hNav1.7 [1] (setting [3]) and 5.97 at hNav1.5.
In the case of `CS(=O)(=O)NC(=O)c1ccc(OCC23CC4CC(CC(C4)C2)C3)c(C2CC2)c1`, the figures for the pIC50 on hNav1.7 [2] (setting [4]), on hNav1.7 [1] (setting [3]) and on hNav1.5 were 8.88, 8.52 and 6.15, respectively.
With `CN(C)S(=O)(=O)NC(=O)c1cc(Cl)c(OCC23CC4CC(C2)C(F)(F)C(C4)C3)cc1F` [Example 92], the results for the pIC50 at hNav1.7 [2] (setting [4]), at hNav1.7 [1] (setting [3]) and on hNav1.5 were 7.27, 6.66 and 5.42, respectively.
Turning to `O=C(NS(=O)(=O)N1CCC1)c1cc(C2CC2)c(OCC2CCC(Cl)(Cl)CC2)cc1F` [Example 377], the results for the negative-log IC50 (pIC50) on hNav1.7 [2] (setting [4]) and at hNav1.7 [1] (setting [3]) were 7.08 and 8.10, respectively.
Turning to `CS(=O)(=O)NC(=O)c1cc(C2CC2(F)F)c(OCC23CC4CC(CC(C4)C2)C3)cc1F` (stereo not shown) [Example 380], the results for the negative-log IC50 (pIC50) on hNav1.7 [2] (setting [4]) and on hNav1.7 [1] (setting [3]) were 7.10 and 8.40, respectively.
Take `O=C(NS(=O)(=O)C1CC1)c1cc(C2CC2)c(OCC2CCC3CC3C2)cc1F` (stereo not shown) [Example 392]: the figures for the negative-log IC50 (pIC50) at hNav1.7 [2] (setting [4]) and at hNav1.7 [1] (setting [3]) were 8.52 and 8.30, respectively.
With `CC1CCCC(C)C1COc1cc(F)c(C(=O)NS(=O)(=O)C2CC2)cc1Cl` (stereo not shown) [Example 397], the results for the pIC50 at hNav1.7 [2] (setting [4]) and on hNav1.7 [1] (setting [3]) were 6.70 and 7.49, respectively.
In the case of `CCS(=O)(=O)NC(=O)c1cc(Cl)c(OCC2CCC3(CC2)CC3)cc1F` [Example 400], the pIC50 at hNav1.7 [2] (setting [4]) was 7.01; at hNav1.7 [1] (setting [3]) it was 7.70.
Taken in the same sequence, the figures for `CS(=O)(=O)NC(=O)c1cc(C2CC2)c(OCC2CCCC(F)(F)C2)cc1F` (stereo not shown) [Example 402] were 6.52 and 7.66.
Turning to `CNS(=O)(=O)NC(=O)c1cc(C2CC2)c(OCC2CCCC(F)(F)C2)cc1F` (stereo not shown) [Example 403], the negative logarithm of the IC50 (pIC50) on hNav1.7 [2] (setting [4]) is 6.04; at hNav1.7 [1] (setting [3]), 7.05.
Taken in the same sequence, the figures for `O=C(NS(=O)(=O)N1CCC1)c1cc(C2CC2)c(OCC2CCCC(F)(F)C2)cc1F` (stereo not shown) [Example 404] were 7.24 and 7.64.
As for `CC1(COc2cc(F)c(C(=O)NS(=O)(=O)C3CC3)cc2C2CC2)CCC(C(F)(F)F)CC1` (stereo not shown) [Example 426, 5-cyclopropyl-N-cyclopropylsulfonyl-2-fluoro-4-[[1-methyl-4-(trifluoromethyl)cyclohexyl]methoxy]benzamide], the figures for the negative logarithm of the IC50 (pIC50) at hNav1.7 [2] (setting [4]) and at hNav1.7 [1] (setting [3]) were 7.29 and 8.70, respectively.
In the case of `CC1(COc2cc(F)c(C(=O)NS(=O)(=O)N3CCC3)cc2C2CC2)CCC(C(F)(F)F)CC1` (stereo not shown) [Example 427, N-(azetidin-1-ylsulfonyl)-5-cyclopropyl-2-fluoro-4-[[1-methyl-4-(trifluoromethyl)cyclohexyl]methoxy]benzamide], the values for the negative logarithm of the IC50 (pIC50) on hNav1.7 [2] (setting [4]) and on hNav1.7 [1] (setting [3]) were 6.89 and 8.52, respectively.
For the compound `O=C(NS(=O)(=O)C1CC1)c1cc(C2CC2)c(OCC2CCC(C(F)(F)F)CC2)cc1F` (stereo not shown) [Example 428, 5-cyclopropyl-N-cyclopropylsulfonyl-2-fluoro-4-[[4-(trifluoromethyl)cyclohexyl]methoxy]benzamide], the negative-log IC50 (pIC50) at hNav1.7 [2] (setting [4]) was 7.92; on hNav1.7 [1] (setting [3]) it was 8.40.
As to `O=C(NS(=O)(=O)N1CCC1)c1cc(C2CC2)c(OCC2CCC(C(F)(F)F)CC2)cc1F` (stereo not shown) [Example 429, N-(azetidin-1-ylsulfonyl)-5-cyclopropyl-2-fluoro-4-[[4-(trifluoromethyl)cyclohexyl]methoxy]benzamide], the negative logarithm of the IC50 (pIC50) on hNav1.7 [2] (setting [4]) was 7.00; at hNav1.7 [1] (setting [3]) it was 8.10.
As to `O=C(NS(=O)(=O)C1CC1)c1cc(C2CC2)c(OCC23CCCCC2C3(F)F)cc1F` (stereo not shown) [Example 430, 5-cyclopropyl-N-cyclopropylsulfonyl-4-[(7,7-difluoronorcaran-1-yl)methoxy]-2-fluoro-benzamide], the values for the negative-log IC50 (pIC50) on hNav1.7 [2] (setting [4]) and on hNav1.7 [1] (setting [3]) were 8.00 and 8.52, respectively.
With `O=C(NS(=O)(=O)N1CCC1)c1cc(C2CC2)c(OCC23CCCCC2C3(F)F)cc1F` (stereo not shown) [Example 431, N-(azetidin-1-ylsulfonyl)-5-cyclopropyl-4-[(7,7-difluoronorcaran-1-yl)methoxy]-2-fluoro-benzamide], the pIC50 on hNav1.7 [2] (setting [4]) was 8.00; at hNav1.7 [1] (setting [3]) it was 7.89.
For the compound `O=C(NS(=O)(=O)N1CCC1)c1cc(C2CC2)c(OCC2CCC3CC3C2)cc1F` (stereo not shown) [Example 432, N-(azetidin-1-ylsulfonyl)-5-cyclopropyl-2-fluoro-4-(norcaran-3-ylmethoxy)benzamide], the negative logarithm of the IC50 (pIC50) on hNav1.7 [2] (setting [4]) is 7.49; on hNav1.7 [1] (setting [3]), 7.66.
`CS(=O)(=O)NC(=O)c1cc(C2CC2)c(OCC2CN(C(c3ccccc3)c3ccccc3)C2)cc1F` [Example 440, 4-((1-benzhydrylazetidin-3-yl)methoxy)-5-cyclopropyl-2-fluoro-N-(methylsulfonyl)benzamide]: the figures for the pIC50 on hNav1.7 [2] (setting [4]), on hNav1.7 [1] (setting [3]) and at hNav1.5 were 7.85, 7.96 and 5.60, respectively.
As to `CS(=O)(=O)NC(=O)c1cc(Cl)c(OCC2CC3C4CCC(C4)C3C2)cc1F` (stereo not shown) [Example 445], the negative logarithm of the IC50 (pIC50) on hNav1.7 [2] (setting [4]) is 8.44; at hNav1.7 [1] (setting [3]), 8.03; on hNav1.5, 6.13.

The term pIC50 denotes the IC50 on a negative log10 scale, so that one unit is a factor of ten.
